“Also recorded” adds a separate entry of the source.

In the experiment the test system is T-cells. Nature of the experiment: T-cell activation assay (anti-CD3 stimulated proliferation, 3H-Tdr incorporation). The following applies: for activity in the T-cell activation assay (T-cell activation by anti-CD3, proliferation quantitated by 3H-Tdr incorporation): 30 min preincubation, anti-CD3 0.3 μg/ml, 56 h then 16 h with 3H-Tdr. Type of experiment: cell-based. The protocol:
FIG. 1. Effects of CD66a peptides on T-cell activation by anti-CD3. T-cells were added to media containing the indicated CD66a peptide S28 ((CD66a-24), (SEQ ID NO:1)) at 150 μg/ml (final concentration) or positive or negative controls in 96 well microtiter plates, and the plates were incubated at 37° C. for 30 min in 5% CO2. Media containing anti-CD3 anitbody was then added and the cells were incubated at […] for 56 hours. Twenty μL of media containing 1 μCi of ^3H-Tdr was then added to each well and the plates were incubated at 37° C. for 30 min in 5% CO2 for an additional 16 hours. The cells were then harvested onto glass fiber filter papers and the radioactivity incorporated into the cells was then determined by liquid scintillation counting. Values are shown as the amount of ^3H-Tdr incorporation in the presence of the indicated peptide as a percent of that incorpoated in the absence of peptide, and represent the means+/−SD of 4 separate determinations.
Cell Preparation. Peripheral blood mononuclear cells (PBMC) were isolated by centrifugation of heparinized blood on a Ficoll/Hypaque (Pharmacia, Uppsala, Sweden) density gradient. Cells from the interface of the gradient were harvested, and resuspended at a concentration of 10^6/ml in medium [RPMI-1640 supplemented with 10% heat inactivated fetal bovine serum, 2 mM L-glutamine, 10 mM HEPES buffer, pH 7.4, 100 U/ml penicillin and 100 ug/ml streptomycin (Gibco, Paisley, U.K.)]. To isolate T-cells, adherent cells were eliminated from PBMC by culture for one hour at 37° C. in 5% CO2 on tissue culture-treated plastic. Remaining B-cells, monocytes, and NK cells were deleted by immunomagnetic negative selection using anti-CD14, anti-CD19, and anti-CD56 microbeads per the manufacturer's recommendations (Miltenyi Biotec GMBH, Bergisch Gladbach, Germany). The purity of the isolated T-cells was >90% as assessed by flow cytometry using FITC-labeled anti-CD3 (Pharmingen, Hamburg, Germany).
T-cell activation assay. Purified T-cells (1×10^5/well) were plated into flat-bottomed 96 well microtiter plates (Greiner, Frickenhausen, Germany) and peptides were added at the indicated concentration. T-cells were incubated with the peptides for 30 min and then stimulated by adding 0.3 μg/ml of anti-CD3 mAb (Pharmingen). The cells were then incubated at 37° C. in 5% CO2 for 56 hours. One μCi of tritiated thymidine (3H-Tdr) (Amersham Buchler, Braunschweig, Germany) in 20 μl of RPMI-1640 was then added to each well, and the cells were cultured for another 16 hours. Cells were then harvested with a cell harvester (Pharmacia LKB-Wallac) onto glass fiber filter paper in a minifold filtration unit (Wallac, Turku, Finland). Individual filters were dissolved in scintillation fluid, and ^3H-Tdr incorporation was measured with a liquid scintillation counter (Pharmacia).

Take “IRWFFKN [Peptide S182, smaller part (right) of peptide S28]”: the “activity in the T-cell activation assay (T-cell activation by anti-CD3, proliferation quantitated by 3H-Tdr incorporation)” value (from here on “activity in the T-cell activation assay”) (peptide 150 μg/ml) is listed as “had activity”.

In the case of “TGISIRW [Peptide S181, smaller part (middle) of peptide S28]”, the “activity in the T-cell activation assay” value (peptide 150 μg/ml) is recorded as “had activity”.

Turning to “TNDTGIS [Peptide S180, smaller part (left) of peptide S28]”, the “activity in the T-cell activation assay” value (peptide 150 μg/ml) is recorded as “had activity”.

Take “TNDTGISIRWFFKN [Peptide S28, 14-amino-acid peptide derived from CD66a]”: under “peptide 150 μg/ml”, the “activity in the T-cell activation assay” value was “inhibited T-cell activation by anti-CD3 compared with control; also recorded: found to have activity; also recorded: potent inhibitor of T-cell activation”. Besides, the “T-cell proliferation (3H-Tdr incorporation) in the presence of peptide compared with media alone (positive control)” value (peptide 150 μg/ml, anti-CD3 stimulation, 4 determinations, p<0.05) is given as “statistically less than that observed with media alone”. Also, where the note is “peptides 150 μg/ml, anti-CD3 stimulation, 4 determinations, p<0.05”, the “cell proliferation (3H-Tdr incorporation) in the presence of peptide compared with the 2 scrambled peptides S159 and S160” value is on record as “statistically less than that observed with the 2 scrambled peptides”.

Values taken from patent US20040214184A1, “Small peptides capable of modulating the function of cd66 (ceacam) family members” (priority 2001, published 2004).
